Data on one compound can be found in PMC10507085, “Pharmacological inhibition of TBK1/IKKε blunts immunopathology in a murine model of SARS-CoV-2 infection” (Nature Communications, 2023).

Some targets named below: ACVR2A (Homo sapiens, UniProt P27037); CDKL3 (Homo sapiens, UniProt Q8IVW4); PIP5K1A (Homo sapiens, UniProt Q99755); PAK3 (Homo sapiens, UniProt O75914); DCLK1 (Homo sapiens, UniProt O15075); TLK2 (Homo sapiens, UniProt Q86UE8); CDK18 (Homo sapiens, UniProt Q07002); MAP3K10 (Homo sapiens, UniProt Q02779); TIE1 (Homo sapiens, UniProt P35590); MYLK3 (Homo sapiens, UniProt Q32MK0); MARK2 (Homo sapiens, UniProt Q7KZI7); STK32C (Homo sapiens, UniProt Q86UX6); SGK2 (Homo sapiens, UniProt Q9HBY8); CDK14 (Homo sapiens, UniProt O94921); FGFR2 (Homo sapiens, UniProt P21802); IKBKB (Homo sapiens, UniProt O14920); MAPK10 (Homo sapiens, UniProt P53779).

What all share (experiment): biochemical
Common to all, as to set-up: KINOMEscan competition binding, DNA-tagged kinase against immobilised ligand, qPCR read-out
Holding throughout (conditions): read-out: Percent Control
A general note: Quantitative PCR measures a nucleic acid by following its amplification.

For another test, the target named is T1, ADRBK1 (Homo sapiens, UniProt P25098).
T1 construct: gene GRK2

The target in another test is T2, ICK (Homo sapiens, UniProt Q9UPZ9).
T2 construct: gene CILK1

A further test concerns the target T3, GSG2 (Homo sapiens, UniProt Q8TF76).
T3 construct: gene HASPIN

Chain of TLK2 (Q86UE8 whole entry): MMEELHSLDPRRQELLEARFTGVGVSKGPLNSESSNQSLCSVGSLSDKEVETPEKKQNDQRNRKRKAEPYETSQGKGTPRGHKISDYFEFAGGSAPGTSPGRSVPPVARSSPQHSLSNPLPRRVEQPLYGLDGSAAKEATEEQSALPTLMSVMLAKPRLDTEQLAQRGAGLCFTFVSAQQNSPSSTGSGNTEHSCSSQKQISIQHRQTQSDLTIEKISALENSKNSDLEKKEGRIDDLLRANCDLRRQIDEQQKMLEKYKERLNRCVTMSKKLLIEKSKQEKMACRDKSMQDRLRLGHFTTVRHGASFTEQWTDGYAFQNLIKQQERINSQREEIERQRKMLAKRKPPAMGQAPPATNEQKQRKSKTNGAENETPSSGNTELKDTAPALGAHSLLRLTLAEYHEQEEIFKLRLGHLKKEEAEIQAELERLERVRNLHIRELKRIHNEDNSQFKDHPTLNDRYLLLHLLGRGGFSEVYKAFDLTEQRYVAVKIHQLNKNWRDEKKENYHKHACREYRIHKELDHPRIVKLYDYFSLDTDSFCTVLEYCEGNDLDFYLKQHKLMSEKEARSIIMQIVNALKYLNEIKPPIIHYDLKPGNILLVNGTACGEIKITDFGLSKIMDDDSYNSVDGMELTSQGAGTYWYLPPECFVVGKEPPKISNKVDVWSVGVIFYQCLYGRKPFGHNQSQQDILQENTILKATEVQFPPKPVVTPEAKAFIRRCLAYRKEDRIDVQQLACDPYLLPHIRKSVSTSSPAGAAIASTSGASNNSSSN
Chain of ACVR2A (P27037 whole entry): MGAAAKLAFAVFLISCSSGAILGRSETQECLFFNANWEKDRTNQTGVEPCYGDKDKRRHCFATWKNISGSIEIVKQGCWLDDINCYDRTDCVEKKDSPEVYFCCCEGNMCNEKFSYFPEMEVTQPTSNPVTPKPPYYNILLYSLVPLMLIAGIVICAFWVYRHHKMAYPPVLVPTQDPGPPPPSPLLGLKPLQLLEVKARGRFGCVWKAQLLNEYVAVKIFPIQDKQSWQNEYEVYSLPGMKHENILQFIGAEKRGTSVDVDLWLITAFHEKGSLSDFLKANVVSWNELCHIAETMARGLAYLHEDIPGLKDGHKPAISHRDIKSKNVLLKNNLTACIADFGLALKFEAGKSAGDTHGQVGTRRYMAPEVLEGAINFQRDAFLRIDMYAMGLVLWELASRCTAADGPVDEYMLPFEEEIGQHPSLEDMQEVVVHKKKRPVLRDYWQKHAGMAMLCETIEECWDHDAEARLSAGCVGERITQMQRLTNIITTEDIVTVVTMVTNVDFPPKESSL
T1 sequence (P25098 whole entry): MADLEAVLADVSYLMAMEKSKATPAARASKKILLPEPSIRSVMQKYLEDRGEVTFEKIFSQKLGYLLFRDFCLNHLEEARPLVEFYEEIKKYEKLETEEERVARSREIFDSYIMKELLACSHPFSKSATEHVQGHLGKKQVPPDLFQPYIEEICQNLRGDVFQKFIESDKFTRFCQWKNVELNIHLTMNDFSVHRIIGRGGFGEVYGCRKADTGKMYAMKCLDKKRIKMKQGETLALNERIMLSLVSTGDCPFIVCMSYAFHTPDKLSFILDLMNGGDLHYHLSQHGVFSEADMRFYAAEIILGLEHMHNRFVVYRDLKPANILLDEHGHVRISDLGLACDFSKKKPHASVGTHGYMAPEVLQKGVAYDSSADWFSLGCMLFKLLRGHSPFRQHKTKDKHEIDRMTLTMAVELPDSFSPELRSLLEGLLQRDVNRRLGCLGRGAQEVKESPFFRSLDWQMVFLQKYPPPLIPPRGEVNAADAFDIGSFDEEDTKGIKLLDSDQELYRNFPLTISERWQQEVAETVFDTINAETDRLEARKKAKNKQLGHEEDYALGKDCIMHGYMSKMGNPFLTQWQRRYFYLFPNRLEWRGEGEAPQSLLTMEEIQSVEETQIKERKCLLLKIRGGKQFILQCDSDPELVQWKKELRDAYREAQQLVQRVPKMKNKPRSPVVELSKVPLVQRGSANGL
Chain of CDK18 (Q07002 whole entry): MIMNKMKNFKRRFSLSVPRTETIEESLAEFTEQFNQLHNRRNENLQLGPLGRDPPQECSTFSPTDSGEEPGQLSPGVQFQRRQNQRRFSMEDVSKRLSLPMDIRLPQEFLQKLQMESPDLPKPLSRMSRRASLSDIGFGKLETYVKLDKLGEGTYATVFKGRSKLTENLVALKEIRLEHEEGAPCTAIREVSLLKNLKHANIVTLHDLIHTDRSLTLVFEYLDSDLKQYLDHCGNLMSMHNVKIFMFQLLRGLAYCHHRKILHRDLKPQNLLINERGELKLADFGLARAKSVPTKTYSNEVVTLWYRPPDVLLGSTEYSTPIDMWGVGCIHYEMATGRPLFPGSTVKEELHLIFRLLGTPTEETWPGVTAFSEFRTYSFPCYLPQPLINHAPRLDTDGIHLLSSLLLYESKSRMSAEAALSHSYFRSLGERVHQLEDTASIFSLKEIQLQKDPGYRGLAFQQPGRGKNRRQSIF
Chain of FGFR2 (P21802 whole entry): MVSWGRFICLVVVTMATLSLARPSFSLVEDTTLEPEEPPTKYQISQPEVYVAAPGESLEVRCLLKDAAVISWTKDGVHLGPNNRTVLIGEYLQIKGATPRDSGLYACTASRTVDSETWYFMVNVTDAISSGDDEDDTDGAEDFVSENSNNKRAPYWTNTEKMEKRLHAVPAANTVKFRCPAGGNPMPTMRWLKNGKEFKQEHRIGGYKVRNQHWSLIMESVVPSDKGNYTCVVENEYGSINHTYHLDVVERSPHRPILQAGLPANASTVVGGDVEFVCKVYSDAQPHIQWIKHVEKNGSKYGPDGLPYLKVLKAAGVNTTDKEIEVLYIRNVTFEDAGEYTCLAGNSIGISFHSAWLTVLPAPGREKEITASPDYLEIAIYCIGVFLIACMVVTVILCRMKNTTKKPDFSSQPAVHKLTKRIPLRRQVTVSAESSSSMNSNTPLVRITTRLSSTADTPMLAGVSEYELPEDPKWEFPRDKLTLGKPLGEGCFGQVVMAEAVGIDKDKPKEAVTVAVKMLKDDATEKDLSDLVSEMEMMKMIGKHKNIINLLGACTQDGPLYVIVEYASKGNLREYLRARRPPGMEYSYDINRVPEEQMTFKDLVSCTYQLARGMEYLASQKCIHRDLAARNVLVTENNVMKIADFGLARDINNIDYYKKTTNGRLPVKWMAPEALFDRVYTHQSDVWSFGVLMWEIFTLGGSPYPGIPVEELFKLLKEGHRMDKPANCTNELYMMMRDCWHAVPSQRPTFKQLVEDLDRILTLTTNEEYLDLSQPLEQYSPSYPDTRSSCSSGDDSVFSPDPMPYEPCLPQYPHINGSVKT
T2 sequence (Q9UPZ9 whole entry): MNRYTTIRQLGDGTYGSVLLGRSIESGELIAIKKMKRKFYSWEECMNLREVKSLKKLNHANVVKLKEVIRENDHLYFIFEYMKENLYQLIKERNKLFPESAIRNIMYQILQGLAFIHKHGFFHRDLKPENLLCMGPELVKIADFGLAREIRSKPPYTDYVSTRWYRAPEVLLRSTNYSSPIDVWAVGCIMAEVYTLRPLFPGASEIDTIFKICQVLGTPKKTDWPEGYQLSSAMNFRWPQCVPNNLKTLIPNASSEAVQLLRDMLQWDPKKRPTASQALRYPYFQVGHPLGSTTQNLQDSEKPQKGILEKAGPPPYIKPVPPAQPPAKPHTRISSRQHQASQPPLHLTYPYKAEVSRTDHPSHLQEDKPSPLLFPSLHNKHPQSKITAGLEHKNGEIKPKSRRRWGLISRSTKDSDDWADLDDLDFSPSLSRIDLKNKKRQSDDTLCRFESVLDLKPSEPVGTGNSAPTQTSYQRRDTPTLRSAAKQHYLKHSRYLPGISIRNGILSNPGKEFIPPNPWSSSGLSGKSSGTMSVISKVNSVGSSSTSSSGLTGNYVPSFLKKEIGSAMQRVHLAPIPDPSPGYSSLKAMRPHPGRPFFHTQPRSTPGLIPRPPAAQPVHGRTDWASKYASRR
Chain of TIE1 (P35590 whole entry): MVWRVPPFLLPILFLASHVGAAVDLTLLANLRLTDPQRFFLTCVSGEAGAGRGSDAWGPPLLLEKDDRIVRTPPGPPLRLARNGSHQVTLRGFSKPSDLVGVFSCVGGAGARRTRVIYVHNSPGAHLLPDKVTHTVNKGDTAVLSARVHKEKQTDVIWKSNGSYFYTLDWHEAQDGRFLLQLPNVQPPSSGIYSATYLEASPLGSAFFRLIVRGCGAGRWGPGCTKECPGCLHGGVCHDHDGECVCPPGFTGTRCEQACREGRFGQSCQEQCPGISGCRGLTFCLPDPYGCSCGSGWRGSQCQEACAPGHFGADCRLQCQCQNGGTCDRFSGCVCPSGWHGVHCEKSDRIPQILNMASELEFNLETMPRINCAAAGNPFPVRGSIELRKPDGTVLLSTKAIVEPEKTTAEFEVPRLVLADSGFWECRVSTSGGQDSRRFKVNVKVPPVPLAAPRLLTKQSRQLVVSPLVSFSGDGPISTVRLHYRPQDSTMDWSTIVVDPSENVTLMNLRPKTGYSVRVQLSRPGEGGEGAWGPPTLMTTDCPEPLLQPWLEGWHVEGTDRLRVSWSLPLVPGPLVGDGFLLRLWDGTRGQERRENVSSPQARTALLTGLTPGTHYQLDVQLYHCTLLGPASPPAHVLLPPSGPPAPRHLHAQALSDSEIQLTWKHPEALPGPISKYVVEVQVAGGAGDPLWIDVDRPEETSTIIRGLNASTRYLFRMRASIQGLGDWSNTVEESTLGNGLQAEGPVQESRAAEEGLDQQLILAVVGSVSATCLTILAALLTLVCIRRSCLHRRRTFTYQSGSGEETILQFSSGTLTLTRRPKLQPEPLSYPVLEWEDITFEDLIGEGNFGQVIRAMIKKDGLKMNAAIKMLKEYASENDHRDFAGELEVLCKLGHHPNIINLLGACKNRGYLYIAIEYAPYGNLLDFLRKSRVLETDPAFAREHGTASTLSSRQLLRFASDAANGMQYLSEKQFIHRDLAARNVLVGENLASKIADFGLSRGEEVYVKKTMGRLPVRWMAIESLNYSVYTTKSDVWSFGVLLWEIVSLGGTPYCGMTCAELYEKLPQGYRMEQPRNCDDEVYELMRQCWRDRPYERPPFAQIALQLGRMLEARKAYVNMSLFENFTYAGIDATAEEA

On to `Oc1ccc(C2=Cc3ccc(O)cc3OC2)cc1` [compound 1, idronoxil], for which the remaining binding at 10 µM on ACVR2A is 66%; on CDKL3 it was 59%; at PIP5K1A, 75%; on PAK3 it was 100%; at DCLK1 it was 100%; at TLK2, 86%. Moreover, the remaining binding at 10 µM at CDK18 was found to be 71%; at MAP3K10 it was 82%; on TIE1, 84%; on ADRBK1 it was 76%; on MYLK3 it was 66%; at MARK2 it was 84%. Moreover, the remaining binding at 10 µM came out at 54% on STK32C; 100% at ICK; 95% on SGK2; 5.3% on GSG2; 95% on CDK14; 80% at FGFR2. For the same compound, the remaining binding at 10 µM came out at 73% on IKBKB and 93% at MAPK10.
